This note sets out measurements from patent US8846685B2, “Human protein tyrosine phosphatase inhibitors and methods of use” (Aerpio Therapeutics Inc., priority 2006, dated 2014).

The structures appear in SMILES notation.

The test has as its target T1, PTP1B (Homo sapiens, UniProt P18031).
T1 sequence (P18031 1-435): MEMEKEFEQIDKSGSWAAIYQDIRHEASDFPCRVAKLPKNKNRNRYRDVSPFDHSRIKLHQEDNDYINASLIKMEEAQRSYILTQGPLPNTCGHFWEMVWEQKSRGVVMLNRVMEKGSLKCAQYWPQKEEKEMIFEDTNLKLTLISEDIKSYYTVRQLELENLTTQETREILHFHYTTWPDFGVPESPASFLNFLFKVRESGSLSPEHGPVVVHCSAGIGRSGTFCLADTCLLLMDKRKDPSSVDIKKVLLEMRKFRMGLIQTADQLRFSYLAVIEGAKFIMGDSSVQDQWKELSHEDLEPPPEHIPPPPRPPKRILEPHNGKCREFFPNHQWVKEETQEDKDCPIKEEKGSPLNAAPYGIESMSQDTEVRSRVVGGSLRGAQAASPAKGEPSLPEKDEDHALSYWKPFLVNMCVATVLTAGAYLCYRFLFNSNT
Nature of the test: PTP1B activity (IC50). Type of test: biochemical.
With `CCc1nc([C@H](Cc2ccc(NS(=O)(=O)O)cc2)NC(=O)[C@H](Cc2ccccc2)N(C)C(=O)OC)cs1` [compound 82], the IC50 (in general, the concentration that inhibits the measured activity by half) amounted to 700 nM.
In the case of `COC(=O)N[C@@H](Cc1ccccc1)C(=O)N[C@@H](Cc1ccc(NS(=O)(=O)O)cc1)c1nc2ccccc2s1` [compound 79] it was 740 nM; in that of `COC(=O)N[C@@H](Cc1ccccc1)C(=O)N[C@@H](Cc1ccc(NS(=O)(=O)O)cc1)c1cscn1` [compound 76], 370 nM; in that of `COC(=O)N[C@@H](Cc1ccccc1)C(=O)N[C@@H](Cc1ccc(NS(=O)(=O)O)cc1)c1nc(-c2ccsc2)cs1` [compound 73], 900 nM.
In turn, `COC(=O)N[C@@H](Cc1ccccc1)C(=O)N[C@@H](Cc1ccc(NS(=O)(=O)O)cc1)c1nc(C)c(-c2ccccc2)s1` [compound 78] returned an IC50 of 170 nM.
Compound `COC(=O)N(C)[C@@H](Cc1ccccc1)C(=O)N[C@@H](Cc1ccc(NS(=O)(=O)O)cc1)c1csc(-c2cccs2)n1` [compound 83] returned an IC50 of 13200 nM.
In turn, `COC(=O)N[C@@H](Cc1ccccc1)C(=O)N[C@@H](Cc1ccc(NS(=O)(=O)O)cc1)c1csc(-c2ccc(-c3ccccn3)s2)n1` [compound 77] showed an IC50 of 510 nM.
For `CCc1csc([C@H](Cc2ccc(NS(=O)(=O)O)cc2)NC(=O)[C@H](Cc2ccccc2)NC(=O)CNC(=O)OC)n1` [compound 80], half-maximal inhibition (IC50) was put at 300 nM.
For the compound `CCc1cnc([C@H](Cc2ccc(NS(=O)(=O)O)cc2)NC(=O)[C@H](Cc2ccccc2)N(C)C(=O)OC)s1` [compound 81], half-maximal inhibition (IC50) was put at 640 nM.
